Laboratory results as given in patent US20200016231A1, “BIOFILM DISRUPTING COMPOSITION” (Whiteley Corporation Pty Ltd, priority 2016, published 2020).
Read-outs that look alike come from different tables or passages of the source.

Tested on: Multidrug resistant Acinetobacter Baumannii, (MRAB)
Test: microbe, parasite or virus in culture

## NCC[C@H](O)C(=O)N[C@@H]1C[C@H](N)[C@@H](O[C@H]2O[C@H](CN)[C@@H](O)[C@H](O)[C@H]2O)[C@H](O)[C@H]1O[C@H]1O[C@H](CO)[C@@H](O)[C@H](N)[C@H]1O [AMI, Amikacin]
read-out: % bacterial viability, MRAB 1 014754 Urine, AMI 4 μg/ml
  viability at 4 µg/mL: 35.9%
read-out: % bacterial viability, MRAB 1 014754 Urine, AMI 12 μg/ml
  viability at 12 µg/mL: 24.5%
read-out: % bacterial viability, MRAB 1 014754 Urine, AMI 20 μg/ml
  viability at 20 µg/mL: 14.7%
read-out: % bacterial viability, MRAB 2 014801 Catheter, AMI 4 μg/ml
  viability at 4 µg/mL: 36%
read-out: % bacterial viability, MRAB 2 014801 Catheter, AMI 12 μg/ml
  viability at 12 µg/mL: 14.1%
read-out: % bacterial viability, MRAB 2 014801 Catheter, AMI 20 μg/ml
  viability at 20 µg/mL: 8.36%
read-out: % bacterial viability, MRAB 3 015069 Skin, AMI 4 μg/ml
  viability at 4 µg/mL: 66.6%
read-out: % bacterial viability, MRAB 3 015069 Skin, AMI 12 μg/ml
  viability at 12 µg/mL: 48.6%
read-out: % bacterial viability, MRAB 3 015069 Skin, AMI 20 μg/ml
  viability at 20 µg/mL: 41.7%
read-out: % bacterial viability, MRAB 4 015095 Hospital Environ, AMI 4 μg/ml
  viability at 4 µg/mL: 66.4%
read-out: % bacterial viability, MRAB 4 015095 Hospital Environ, AMI 12 μg/ml
  viability at 12 µg/mL: 42.9%
read-out: % bacterial viability, MRAB 4 015095 Hospital Environ, AMI 20 μg/ml
  viability at 20 µg/mL: 33.9%
read-out: % bacterial viability, MRAB 5 015103 Hospital Environ, AMI 4 μg/ml
  viability at 4 µg/mL: 65.2%
read-out: % bacterial viability, MRAB 5 015103 Hospital Environ, AMI 12 μg/ml
  viability at 12 µg/mL: 26.9%
read-out: % bacterial viability, MRAB 5 015103 Hospital Environ, AMI 20 μg/ml
  viability at 20 µg/mL: 24.6%
read-out: % bacterial viability, MRAB 12 016419 Catheter, AMI 4 μg/ml
  viability at 4 µg/mL: 49.7%
read-out: % bacterial viability, MRAB 12 016419 Catheter, AMI 12 μg/ml
  viability at 12 µg/mL: 22.7%
read-out: % bacterial viability, MRAB 12 016419 Catheter, AMI 20 μg/ml
  viability at 20 µg/mL: 19.8%
